Laboratory results published in ChEMBL document CHEMBL1151091, “Aminomethylthiophene-2-carboxylic acids as dipeptide mimetic in new growth hormone secretagogues” (Bioorg Med Chem Lett, 1997).
pEC50: −log10 of the molar value. Square brackets hold non-standard residues; d marks the D form. Peptide text beside a SMILES is read from it. d2Nal = N[C@H](Cc1ccc2ccccc2c1)C(=O)O; 3Amb = NCc1cccc(C(=O)O)c1

Species: Rattus norvegicus
Test: In vitro release of growth hormone by rat pituitary assay
Type: functional

Row | Compound | pEC50
1 | NCCCC[C@H](NC(=O)[C@@H](Cc1ccccc1)NC(=O)[C@@H](Cc1ccc2ccccc2c1)NC(=O)c1cccc(CN)c1)C(N)=O (H-[3Amb][d2Nal][dF]K-NH2) | 8.15
2 | C[C@H](N)C(=O)N[C@@H](Cc1c[nH]cn1)C(=O)N[C@H](Cc1ccc2ccccc2c1)C(=O)N[C@H](Cc1ccccc1)C(=O)N[C@@H](CCCCN)C(N)=O | 8.22
3 | NCCCC[C@H](NC(=O)[C@@H](Cc1ccccc1)NC(=O)[C@@H](Cc1ccc2ccccc2c1)NC(=O)c1ccc(CN)s1)C(N)=O | 6.68
4 | NCCCC[C@H](NC(=O)[C@@H](Cc1ccccc1)NC(=O)[C@@H](Cc1ccc2ccccc2c1)NC(=O)c1ccccc1CN)C(N)=O | 7.07
5 | NCCCC[C@H](NC(=O)[C@@H](Cc1ccccc1)NC(=O)[C@@H](Cc1ccc2ccccc2c1)NC(=O)c1cc(CN)cs1)C(N)=O | 6.17
6 | NCCCC[C@H](NC(=O)[C@@H](Cc1ccccc1)NC(=O)[C@@H](Cc1ccc2ccccc2c1)NC(=O)c1sccc1CN)C(N)=O | 7.57
